Reference: patent US8846746B2, “Pyrazole compound and pharmaceutical use thereof” (Japan Tobacco Inc., priority 2011, dated 2014)

Target: human SGLT1 (Homo sapiens (Human), UniProt P13866)
Experiment: SGLT1 inhibitory activity: 14C-AMG uptake into CHO-K1 cell line stably expressing human SGLT1
Assay type: cell-based
Conditions: 14C-AMG uptake, CHO-K1 cells expressing human SGLT1
Method in brief: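 CHO-K1 cells stably expressing human SGLT1 were pre-incubated 20 min in Na(−) buffer (pH 7.4). Test compound in Na(+) buffer with BSA was added with ¹⁴C-AMG (8 kBq) plus unlabelled AMG (2 mM in the added solution) for 1 h at 37 °C.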

Chain of human SGLT1 (P13866 whole entry): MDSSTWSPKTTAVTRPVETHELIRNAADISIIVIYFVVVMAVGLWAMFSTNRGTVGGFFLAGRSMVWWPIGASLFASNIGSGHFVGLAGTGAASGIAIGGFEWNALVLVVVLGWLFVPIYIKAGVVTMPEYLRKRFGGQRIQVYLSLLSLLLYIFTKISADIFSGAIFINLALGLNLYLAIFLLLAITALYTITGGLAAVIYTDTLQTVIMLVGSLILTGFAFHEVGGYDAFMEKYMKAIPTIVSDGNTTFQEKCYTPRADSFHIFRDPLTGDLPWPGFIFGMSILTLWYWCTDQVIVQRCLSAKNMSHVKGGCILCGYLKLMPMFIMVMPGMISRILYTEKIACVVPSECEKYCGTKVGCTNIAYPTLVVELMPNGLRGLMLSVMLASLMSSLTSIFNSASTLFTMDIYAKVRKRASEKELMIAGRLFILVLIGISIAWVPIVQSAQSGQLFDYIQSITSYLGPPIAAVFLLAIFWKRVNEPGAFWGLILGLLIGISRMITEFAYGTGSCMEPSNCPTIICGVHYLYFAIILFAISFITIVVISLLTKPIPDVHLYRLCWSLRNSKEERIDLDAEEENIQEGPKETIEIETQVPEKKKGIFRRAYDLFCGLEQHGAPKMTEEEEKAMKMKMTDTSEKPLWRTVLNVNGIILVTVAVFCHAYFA

Structure (SMILES) | IC50 [nM]
COC(C)(C)c1cccc(-c2cc(NC(=O)[C@H]3CNC(=O)C3)nn2-c2ccccc2)c1 [Example 82] | 12
O=C1C[C@@H](C(=O)Nc2cc(-c3cccc(OC(F)(F)F)c3)n(C3CCCCCC3)n2)CN1 [Example 85] | 50
CCCc1cccc(-c2cc(NC(=O)[C@H]3CNC(=O)C3)nn2C(F)(F)F)c1 [Example 86] | 54
CCCc1cccc(-c2cc(NC(=O)[C@@H]3CNC(=O)C3)nn2C(F)(F)F)c1 [Example 87] | 110
O=C1C[C@@H](C(=O)Nc2cc(-c3cccc(C4CC4)c3)n(-c3ccccc3)n2)CN1 [Example 92] | 25
O=C1C[C@H](C(=O)Nc2cc(-c3cccc(C4CC4)c3)n(-c3ccccc3)n2)CN1 [Example 93] | 31
CCCc1cccc(-c2cc(NC(=O)[C@H]3CNC(=O)C3)nn2Cc2ccccc2)c1 [Example 98] | 30
CCCc1cccc(-c2cc(NC(=O)[C@@H]3CNC(=O)C3)nn2Cc2ccccc2)c1 [Example 99] | 73
O=C1C[C@@H](C(=O)Nc2cc(-c3cccc(OC(F)(F)F)c3)n(-c3ccc(Cl)cc3)n2)CN1 [Example 105] | 37
CCCc1cccc(-c2cc(NC(=O)[C@H]3CNC(=O)C3)nn2CCc2ccccc2)c1 [Example 107] | 44
CC(C)(C)c1cccc(-c2cc(NC(=O)[C@H]3CNC(=O)C3)nn2CCc2ccccc2)c1 [Example 109] | 65
O=C1C[C@@H](C(=O)Nc2cc(-c3cccc(OC(F)(F)F)c3)n(CCc3ccccc3)n2)CN1 [Example 110] | 85
CCCc1cccc(-c2cc(NC(=O)[C@H]3CNC(=O)C3)nn2CC2CCCCC2)c1 [Example 111] | 46
CCCc1cccc(-c2cc(NC(=O)[C@@H]3CNC(=O)C3)nn2CC2CCCCC2)c1 [Example 112] | 83
CCCc1cccc(-c2cc(NC(=O)[C@H]3CNC(=O)C3)nn2CCC2CCCCC2)c1 [Example 113] | 12
CCCc1cccc(-c2cc(NC(=O)[C@@H]3CNC(=O)C3)nn2CCC2CCCCC2)c1 [Example 114] | 27

Structure (SMILES) | IC50 [nM]
O=C1C[C@@H](C(=O)Nc2cc(-c3cccc(O)c3)n(-c3ccccc3)n2)CN1 [Example 118] | 9300
O=C1C[C@@H](C(=O)Nc2cc(-c3cccc(CO)c3)n(-c3ccccc3)n2)CN1 [Example 119] | 570
CCCc1cccc(-c2cc(NC(=O)[C@H]3CNC(=O)C3)nn2-c2cccc(OCC(=O)O)c2)c1 [Example 124] | 170
CCCc1cccc(-c2cc(NC(=O)[C@@H]3CNC(=O)N3C)nn2-c2ccccc2)c1 [Example 125] | 17
O=C1C[C@@H](C(=O)Nc2cc(-c3cccc(OC(F)(F)F)c3)n(CCC3CCCCC3)n2)CN1 [Example 128] | 17
CC(C)(C)c1cccc(-c2cc(NC(=O)[C@H]3CNC(=O)C3)nn2CCC2CCCCC2)c1 [Example 129] | 28
CCCc1cccc(-c2cc(NC(=O)[C@H]3CNC(=O)C3)nn2C2CCOCC2)c1 [Example 136] | 28
CCCc1cccc(-c2cc(NC(=O)[C@H]3CNC(=O)C3)nn2CCC2CCCC2)c1 [Example 137] | 14
O=C1C[C@@H](C(=O)Nc2cc(-c3cccc(OC(F)(F)F)c3)n(-c3ccc(F)cc3)n2)CN1 [Example 147] | 15
CCC(F)(F)c1cccc(-c2cc(NC(=O)[C@H]3CNC(=O)C3)nn2C2CCOCC2)c1 [Example 155] | 19
O=C1C[C@@H](C(=O)Nc2cc(-c3cccc(OC(F)(F)F)c3)n(-c3cccc(F)c3)n2)CN1 [Example 157] | 13
O=C1C[C@@H](C(=O)Nc2cc(-c3cccc(OCC(F)(F)F)c3)n(-c3ccc(Cl)cc3)n2)CN1 [Example 159] | 17
O=C1C[C@@H](C(=O)Nc2cc(-c3cccc(OCCC(F)(F)F)c3)n(-c3ccc(Cl)cc3)n2)CN1 [Example 160] | 11
CC(F)(F)c1cccc(-c2cc(NC(=O)[C@H]3CNC(=O)C3)nn2-c2ccccc2)c1 [Example 161] | 22
CC(F)(F)c1cccc(-c2cc(NC(=O)[C@H]3CNC(=O)C3)nn2-c2ccc(Cl)cc2)c1 [Example 162] | 19

Further lines, results first:

IC50 [nM] | Structure (SMILES)
11 | COC(C)(C)c1cccc(-c2cc(NC(=O)[C@@H]3CNC(=O)C3)nn2-c2ccccc2)c1 [Example 83]
11 | CCCc1cccc(-c2cc(NC(=O)[C@H]3CNC(=O)C3)nn2-c2ccc(OC)cc2)c1 [Example 121]
11 | CCCc1cccc(-c2cc(NC(=O)[C@H]3CNC(=O)C3)nn2-c2ccccc2OC)c1 [Example 133]
11 | CCCc1cccc(-c2cc(NC(=O)[C@H]3CNC(=O)C3)nn2CCC(C)C)c1 [Example 135]
10 | CCCc1cccc(-c2cc(NC(=O)[C@@H]3CNC(=O)N3)nn2-c2ccccc2)c1 [Example 97]
10 | O=C1C[C@@H](C(=O)Nc2cc(-c3cccc(OCC(F)(F)F)c3)n(-c3ccccc3)n2)CN1 [Example 148]
9.8 | CCCc1cccc(-c2cc(NC(=O)[C@@H]3CNC(=O)C3)nn2-c2cccc(F)c2)c1 [Example 104]
9.5 | O=C1C[C@@H](C(=O)Nc2cc(-c3cccc(OCCC(F)(F)F)c3)n(-c3ccccc3)n2)CN1 [Example 149]
9.3 | C[C@H]1C(=O)NC[C@@H]1C(=O)Nc1cc(-c2cccc(OC(F)(F)F)c2)n(-c2ccc(Cl)cc2)n1 [Example 152]
9.2 | CCC(F)(F)c1cccc(-c2cc(NC(=O)[C@H]3CNC(=O)C3)nn2CCC(C)C)c1 [Example 142]
7.2 | CC(C)(C)c1cccc(-c2cc(NC(=O)[C@H]3CNC(=O)C3)nn2C2CCCCCC2)c1 [Example 84]
7.1 | COc1cccc(-n2nc(NC(=O)[C@H]3CNC(=O)C3)cc2-c2cccc(OC(F)(F)F)c2)c1 [Example 163]
6.8 | O=C1C[C@@H](C(=O)Nc2cc(-c3cccc(OC(F)(F)F)c3)n(-c3cccc(Cl)c3)n2)CN1 [Example 106]
6.8 | CCCc1cccc(-c2cc(NC(=O)[C@H]3CNC(=O)C3)nn2CCC(C)(C)C)c1 [Example 134]
6.5 | CCC(F)(F)c1cccc(-c2cc(NC(=O)[C@H]3CNC(=O)C3)nn2CCC(C)(C)C)c1 [Example 143]
6.3 | O=C1C[C@@H](C(=O)Nc2cc(-c3cccc(OC(F)(F)F)c3)n(-c3ccccc3F)n2)CN1 [Example 131]
5.5 | CCC(F)(F)c1cccc(-c2cc(NC(=O)[C@H]3CNC(=O)C3)nn2-c2ccc(Cl)cc2)c1 [Example 141]
5 | CCCc1cccc(-c2cc(NC(=O)[C@H]3CNC(=O)C3)nn2-c2cccc(F)c2)c1 [Example 103]
5 | CCCc1cccc(-c2cc(NC(=O)[C@H]3CNC(=O)C3)nn2-c2cccc(OC)c2)c1 [Example 123]

IC50 [nM] | Structure (SMILES)
3.4 | CC(C)C(F)(F)c1cccc(-c2cc(NC(=O)[C@H]3CNC(=O)C3)nn2-c2ccc(Cl)cc2)c1 [Example 158]
3.3 | CC(C)(C)c1cccc(-c2cc(NC(=O)[C@H]3CNC(=O)C3)nn2-c2ccc(Cl)cc2)c1 [Example 153]
2.9 | C[C@H]1C(=O)NC[C@@H]1C(=O)Nc1cc(-c2cccc(OC(F)(F)F)c2)n(-c2ccccc2F)n1 [Example 166]
2.7 | Cc1ccccc1-n1nc(NC(=O)[C@H]2CNC(=O)C2)cc1-c1cccc(OC(F)(F)F)c1 [Example 156]
2.6 | CCC(F)(F)c1cccc(-c2cc(NC(=O)[C@H]3CNC(=O)C3)nn2-c2cccc(OC)c2)c1 [Example 164]
2.4 | CCCc1cccc(-c2cc(NC(=O)[C@H]3CNC(=O)C3)nn2-c2cccc(Cl)c2)c1 [Example 95]
2.4 | CCCc1cccc(-c2cc(NC(=O)[C@@H]3CNC(=O)C3)nn2-c2ccccc2Cl)c1 [Example 101]
2.2 | CCCc1cccc(-c2cc(NC(=O)[C@H]3CNC(=O)C3)nn2-c2ccccc2C)c1 [Example 102]
1.9 | CCCc1cccc(-c2cc(NC(=O)[C@H]3CNC(=O)C3)nn2-c2ccccc2Cl)c1 [Example 100]
1.7 | CCC(F)(F)c1cccc(-c2cc(NC(=O)[C@H]3CNC(=O)C3)nn2-c2cccc(Cl)c2)c1 [Example 139]
1.5 | CC(C)C(F)(F)c1cccc(-c2cc(NC(=O)[C@H]3CNC(=O)C3)nn2-c2ccccc2)c1 [Example 138]
1.4 | Cc1cccc(-n2nc(NC(=O)[C@H]3CNC(=O)C3)cc2-c2cccc(C(C)(C)C)c2)c1 [Example 127]
1.3 | O=C1C[C@@H](C(=O)Nc2cc(-c3cccc(OC(F)(F)F)c3)n(-c3ccccc3Cl)n2)CN1 [Example 130]
1.3 | CCC(F)(F)c1cccc(-c2cc(NC(=O)[C@H]3CNC(=O)C3)nn2-c2ccccc2C)c1 [Example 144]
1.2 | CC(C)(C)c1cccc(-c2cc(NC(=O)[C@H]3CNC(=O)C3)nn2-c2cccc(Cl)c2)c1 [Example 126]
1.1 | CCC(F)(F)c1cccc(-c2cc(NC(=O)[C@H]3CNC(=O)C3)nn2-c2ccccc2Cl)c1 [Example 140]
1.1 | CCC(F)(F)c1cccc(-c2cc(NC(=O)[C@H]3CNC(=O)[C@@H]3C)nn2-c2ccccc2)c1 [Example 154]
0.9 | CC(C)(C)c1cccc(-c2cc(NC(=O)[C@H]3CNC(=O)C3)nn2-c2ccccc2Cl)c1 [Example 132]

Same assay, conditions: CHO-K1, at 0.1 uM

Structure (SMILES) | inhibition at 0.1 µM [%]
CCCc1cccc(-c2cc(NC(=O)[C@@H]3CNC(=O)C3)nn2CCc2ccccc2)c1 [Example 108] | 45
CCCc1cc(CO)cc(-c2cc(NC(=O)[C@H]3CNC(=O)C3)nn2-c2ccccc2)c1 [Example 146] | 38
CCC(F)(F)c1cccc(-c2cc(NC(=O)[C@H]3CNC(=O)C3)nn2CCN2CCCC2)c1 [Example 169] | 4

Same assay, conditions: CHO-K1, at 0.3 uM

Structure (SMILES) | inhibition at 0.3 µM [%]
CC(C)(O)c1cccc(-c2cc(NC(=O)[C@@H]3CNC(=O)C3)nn2-c2ccccc2)c1 [Example 81] | 43

Same assay, conditions: CHO-K1, at 1 uM

Structure (SMILES) | inhibition at 1 µM [%]
CCCc1cc(-c2cc(NC(=O)[C@H]3CNC(=O)C3)nn2-c2ccccc2)ccc1OCC(=O)O [Example 122] | 9
CCCc1cc(C(=O)O)cc(-c2cc(NC(=O)[C@H]3CNC(=O)C3)nn2-c2ccccc2)c1 [Example 145] | 43
